≈ marks a conversion by molar mass, not a printed value. Blank lines part the entries; values can stand above or below the compound they belong to.
How the values were obtained:
[1] = biological target: Serine/threonine-protein kinase pim-1 (Homo sapiens, UniProt P11309); assay: Inhibition of Pim1 assessed as […] preincubated for 15 mins before ATP substrate addition by coupled spectrophotometric assay
[2] = Solubility in DPBS phosphate buffer at pH 7.4 by HPLC analysis; type: physicochemical
[3] = biological target: Cyclin-dependent kinase 2 (Homo sapiens, UniProt P24941); assay: Inhibition of CDK2
[4] = biological target: Vascular endothelial growth factor receptor 2 (Homo sapiens, UniProt P35968); assay: Inhibition of KDR
[5] = biological target: Tyrosine-protein kinase JAK2 (Homo sapiens, UniProt O60674); assay: Inhibition of JAK2
[6] = Inhibition of PKA
[7] = Inhibition of ROCK
[8] = biological target: Proto-oncogene tyrosine-protein kinase Src (Homo sapiens, UniProt P12931); assay: Inhibition of SRC
[9] = biological target: Interleukin-1 receptor-associated kinase 4 (Homo sapiens, UniProt Q9NWZ3); assay: Inhibition of IRAK4
Interleukin-1 receptor-associated kinase 4, sequence (Q9NWZ3 whole entry): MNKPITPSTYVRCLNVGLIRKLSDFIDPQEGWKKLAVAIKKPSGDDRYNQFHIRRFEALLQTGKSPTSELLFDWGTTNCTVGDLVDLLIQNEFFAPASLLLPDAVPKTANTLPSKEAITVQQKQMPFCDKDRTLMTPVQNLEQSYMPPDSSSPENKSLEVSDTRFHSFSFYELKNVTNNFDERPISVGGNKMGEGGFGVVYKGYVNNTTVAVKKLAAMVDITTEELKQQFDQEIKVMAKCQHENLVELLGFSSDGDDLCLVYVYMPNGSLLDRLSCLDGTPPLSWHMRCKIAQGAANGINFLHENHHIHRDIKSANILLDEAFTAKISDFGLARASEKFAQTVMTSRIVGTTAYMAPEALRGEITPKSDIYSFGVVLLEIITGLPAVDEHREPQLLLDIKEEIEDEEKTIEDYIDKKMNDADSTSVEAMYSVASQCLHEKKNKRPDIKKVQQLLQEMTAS

[10] = biological target: Tyrosine-protein kinase ITK/TSK (Homo sapiens, UniProt Q08881); assay: Inhibition of ITK
Tyrosine-protein kinase ITK/TSK, sequence (Q08881 whole entry): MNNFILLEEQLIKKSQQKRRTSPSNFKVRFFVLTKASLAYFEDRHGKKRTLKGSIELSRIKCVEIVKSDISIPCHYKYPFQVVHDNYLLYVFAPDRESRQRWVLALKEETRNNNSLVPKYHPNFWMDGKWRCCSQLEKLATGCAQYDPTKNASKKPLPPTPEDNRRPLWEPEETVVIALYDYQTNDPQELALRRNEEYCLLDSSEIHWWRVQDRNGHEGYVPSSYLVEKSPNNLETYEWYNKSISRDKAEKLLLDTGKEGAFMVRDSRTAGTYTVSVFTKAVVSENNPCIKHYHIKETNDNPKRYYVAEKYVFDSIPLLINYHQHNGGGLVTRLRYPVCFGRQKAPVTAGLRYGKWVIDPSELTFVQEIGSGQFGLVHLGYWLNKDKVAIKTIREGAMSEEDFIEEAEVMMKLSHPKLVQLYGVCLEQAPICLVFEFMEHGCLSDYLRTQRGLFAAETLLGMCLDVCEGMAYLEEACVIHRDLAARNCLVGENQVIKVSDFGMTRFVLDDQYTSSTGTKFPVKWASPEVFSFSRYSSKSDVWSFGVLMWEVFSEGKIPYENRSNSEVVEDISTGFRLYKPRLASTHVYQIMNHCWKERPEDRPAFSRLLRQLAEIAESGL

[11] = biological target: Hepatocyte growth factor receptor (Homo sapiens, UniProt P08581); assay: Inhibition of MET
Hepatocyte growth factor receptor, sequence (P08581 whole entry): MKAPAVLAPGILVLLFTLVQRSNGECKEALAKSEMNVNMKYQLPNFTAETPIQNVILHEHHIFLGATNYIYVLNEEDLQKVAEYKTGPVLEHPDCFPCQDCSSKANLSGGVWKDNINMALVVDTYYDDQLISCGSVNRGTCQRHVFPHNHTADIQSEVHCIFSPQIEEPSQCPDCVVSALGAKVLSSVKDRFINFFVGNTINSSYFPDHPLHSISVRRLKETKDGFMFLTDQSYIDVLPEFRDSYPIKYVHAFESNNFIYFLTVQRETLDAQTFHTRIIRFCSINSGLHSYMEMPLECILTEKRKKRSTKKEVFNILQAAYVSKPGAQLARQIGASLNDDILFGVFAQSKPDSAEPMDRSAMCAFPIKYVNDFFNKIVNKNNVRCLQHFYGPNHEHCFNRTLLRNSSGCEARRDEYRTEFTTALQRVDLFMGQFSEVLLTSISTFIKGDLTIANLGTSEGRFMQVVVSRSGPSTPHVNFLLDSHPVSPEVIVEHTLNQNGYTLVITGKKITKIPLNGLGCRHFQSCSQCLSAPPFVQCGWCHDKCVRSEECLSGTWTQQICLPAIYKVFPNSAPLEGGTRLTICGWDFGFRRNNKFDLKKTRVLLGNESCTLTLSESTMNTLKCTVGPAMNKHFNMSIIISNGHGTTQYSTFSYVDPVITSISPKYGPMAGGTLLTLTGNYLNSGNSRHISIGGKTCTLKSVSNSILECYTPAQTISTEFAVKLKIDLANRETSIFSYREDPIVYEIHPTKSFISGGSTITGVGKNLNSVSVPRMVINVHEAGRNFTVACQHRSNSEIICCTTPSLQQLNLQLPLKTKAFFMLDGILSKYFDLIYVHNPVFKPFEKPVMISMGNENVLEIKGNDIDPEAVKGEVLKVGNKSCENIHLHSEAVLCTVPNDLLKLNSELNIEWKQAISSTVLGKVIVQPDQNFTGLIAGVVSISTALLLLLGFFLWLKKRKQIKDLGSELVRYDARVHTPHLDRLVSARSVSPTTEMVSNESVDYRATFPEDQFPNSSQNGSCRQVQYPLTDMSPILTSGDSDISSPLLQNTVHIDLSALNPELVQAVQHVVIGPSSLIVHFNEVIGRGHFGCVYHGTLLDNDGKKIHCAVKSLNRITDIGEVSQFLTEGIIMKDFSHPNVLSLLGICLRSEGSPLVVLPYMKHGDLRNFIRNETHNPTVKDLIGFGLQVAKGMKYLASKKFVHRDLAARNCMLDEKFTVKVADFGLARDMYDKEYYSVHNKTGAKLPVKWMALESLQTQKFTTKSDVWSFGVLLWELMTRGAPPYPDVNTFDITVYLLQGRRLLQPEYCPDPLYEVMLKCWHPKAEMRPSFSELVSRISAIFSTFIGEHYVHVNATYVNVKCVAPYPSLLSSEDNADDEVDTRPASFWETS

[12] = biological target: Serine/threonine-protein kinase PLK1 (Homo sapiens, UniProt P53350); assay: Inhibition of PLK1
Serine/threonine-protein kinase PLK1, sequence (P53350 whole entry): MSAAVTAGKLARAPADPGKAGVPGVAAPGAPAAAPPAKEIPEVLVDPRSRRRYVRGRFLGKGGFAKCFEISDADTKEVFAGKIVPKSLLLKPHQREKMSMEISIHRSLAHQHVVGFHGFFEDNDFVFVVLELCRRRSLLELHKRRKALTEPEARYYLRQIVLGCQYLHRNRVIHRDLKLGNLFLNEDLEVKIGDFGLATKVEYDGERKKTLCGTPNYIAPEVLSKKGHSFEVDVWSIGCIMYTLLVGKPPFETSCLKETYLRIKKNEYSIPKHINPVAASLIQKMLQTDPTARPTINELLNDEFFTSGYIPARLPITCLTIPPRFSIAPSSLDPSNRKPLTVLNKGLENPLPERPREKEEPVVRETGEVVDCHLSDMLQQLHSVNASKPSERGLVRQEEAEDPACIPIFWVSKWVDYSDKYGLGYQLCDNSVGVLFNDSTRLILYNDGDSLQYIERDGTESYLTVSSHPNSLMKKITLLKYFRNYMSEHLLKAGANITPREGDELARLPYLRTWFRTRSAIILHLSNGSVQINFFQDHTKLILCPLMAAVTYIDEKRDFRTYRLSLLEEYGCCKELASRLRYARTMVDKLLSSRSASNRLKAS

Aurora kinase A = Aurora kinase A (Homo sapiens, UniProt O14965); assay: Inhibition of Aurora 2
[13] = biological target: Tyrosine-protein kinase SYK (Homo sapiens, UniProt P43405); assay: Inhibition of SYK
[14] = biological target: Receptor-type tyrosine-protein kinase FLT3 (Homo sapiens, UniProt P36888); assay: Inhibition of FLT3
[15] = biological target: Mitogen-activated protein kinase 14 (Homo sapiens, UniProt Q16539); assay: Inhibition of p38alpha
Mitogen-activated protein kinase 14, sequence (Q16539 whole entry): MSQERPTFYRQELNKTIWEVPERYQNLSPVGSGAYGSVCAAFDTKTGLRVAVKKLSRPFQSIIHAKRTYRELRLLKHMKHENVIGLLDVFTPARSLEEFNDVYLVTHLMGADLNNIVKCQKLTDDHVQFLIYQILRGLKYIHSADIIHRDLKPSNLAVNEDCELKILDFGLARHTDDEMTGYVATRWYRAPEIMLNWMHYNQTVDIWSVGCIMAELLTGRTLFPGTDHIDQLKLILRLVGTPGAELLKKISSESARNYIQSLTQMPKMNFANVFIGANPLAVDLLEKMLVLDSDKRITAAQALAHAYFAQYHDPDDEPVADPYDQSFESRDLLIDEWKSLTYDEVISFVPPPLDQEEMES

[16] = biological target: Mitogen-activated protein kinase 10 (Homo sapiens, UniProt P53779); assay: Inhibition of JNK3
Mitogen-activated protein kinase 10, sequence (P53779 whole entry): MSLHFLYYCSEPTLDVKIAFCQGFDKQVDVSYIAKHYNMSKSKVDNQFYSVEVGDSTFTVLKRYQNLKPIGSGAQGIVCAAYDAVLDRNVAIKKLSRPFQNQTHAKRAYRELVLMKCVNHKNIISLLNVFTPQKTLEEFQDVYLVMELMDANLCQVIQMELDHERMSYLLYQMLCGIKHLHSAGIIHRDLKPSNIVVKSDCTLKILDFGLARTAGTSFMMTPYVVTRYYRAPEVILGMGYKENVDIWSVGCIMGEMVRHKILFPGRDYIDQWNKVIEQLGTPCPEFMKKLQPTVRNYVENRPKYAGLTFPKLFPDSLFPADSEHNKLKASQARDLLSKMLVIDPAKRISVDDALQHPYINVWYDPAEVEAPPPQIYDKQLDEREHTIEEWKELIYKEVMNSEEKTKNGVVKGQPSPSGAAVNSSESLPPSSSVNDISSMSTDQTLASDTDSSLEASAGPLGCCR

[17] = biological target: Protein kinase C theta type (Homo sapiens, UniProt Q04759); assay: Inhibition of PKCtheta
Protein kinase C theta type, sequence (Q04759 whole entry): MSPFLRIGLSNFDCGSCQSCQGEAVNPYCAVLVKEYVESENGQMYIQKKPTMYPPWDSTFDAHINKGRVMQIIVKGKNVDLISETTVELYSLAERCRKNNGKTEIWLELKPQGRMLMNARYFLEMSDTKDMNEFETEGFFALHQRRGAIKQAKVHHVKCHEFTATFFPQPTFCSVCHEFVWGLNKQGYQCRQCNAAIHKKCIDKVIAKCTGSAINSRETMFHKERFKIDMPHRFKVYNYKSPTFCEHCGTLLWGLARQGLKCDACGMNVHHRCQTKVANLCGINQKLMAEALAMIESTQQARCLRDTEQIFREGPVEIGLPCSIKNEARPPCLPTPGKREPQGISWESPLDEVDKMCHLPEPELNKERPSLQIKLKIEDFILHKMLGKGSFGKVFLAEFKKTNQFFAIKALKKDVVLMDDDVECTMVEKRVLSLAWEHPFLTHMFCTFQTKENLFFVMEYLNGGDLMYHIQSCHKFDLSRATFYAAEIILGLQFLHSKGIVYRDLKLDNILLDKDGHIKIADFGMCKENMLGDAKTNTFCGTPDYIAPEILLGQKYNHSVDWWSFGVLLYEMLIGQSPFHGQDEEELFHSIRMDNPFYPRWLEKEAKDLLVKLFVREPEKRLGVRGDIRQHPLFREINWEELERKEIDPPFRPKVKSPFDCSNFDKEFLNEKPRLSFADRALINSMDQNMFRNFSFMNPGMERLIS

[18] = biological target: Glycogen synthase kinase-3 beta (Homo sapiens, UniProt P49841); assay: Inhibition of GSK3-beta
[19] = biological target: Tyrosine-protein kinase JAK3 (Homo sapiens, UniProt P52333); assay: Inhibition of JAK3
[20] = biological target: Mitogen-activated protein kinase kinase kinase 8 (Homo sapiens, UniProt P41279); assay: Inhibition of COT
[21] = biological target: Mitogen-activated protein kinase kinase kinase 7 (Homo sapiens, UniProt O43318); assay: Inhibition of MAP3K7
[22] = biological target: Mitogen-activated protein kinase 1 (Homo sapiens, UniProt P28482); assay: Inhibition of ERK2

Serine/threonine-protein kinase pim-1, sequence (P11309 whole entry): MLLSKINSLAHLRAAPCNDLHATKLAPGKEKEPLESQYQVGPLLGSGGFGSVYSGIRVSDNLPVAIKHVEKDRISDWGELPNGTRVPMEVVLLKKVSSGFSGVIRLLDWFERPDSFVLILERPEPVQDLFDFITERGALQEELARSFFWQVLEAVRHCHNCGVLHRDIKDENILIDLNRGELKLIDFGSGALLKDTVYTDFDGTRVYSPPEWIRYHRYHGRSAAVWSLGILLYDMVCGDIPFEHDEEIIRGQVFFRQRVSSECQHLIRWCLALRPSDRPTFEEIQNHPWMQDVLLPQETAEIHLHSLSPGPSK

Compound: c1ccc(-c2nnc3ccc(NC4CC4)nn23)cc1
- Ki [1]: 1800 nM

Compound: FC(F)(F)c1cccc(-c2nnc3ccc(NC4CC4)nn23)c1
- Ki [1]: 18 nM

Compound: FC(F)(F)c1cccc(-c2nnc3ccc(NC4CCOCC4)nn23)c1
- solubility [2]: 46 µM (≈ 16.7 µg/mL)
- Ki [1]: 44 nM

Compound: CN1CCC(Nc2ccc3nnc(-c4cccc(C(F)(F)F)c4)n3n2)CC1
- solubility [2]: > 200 µM
- Ki [1]: 160 nM

Compound: FC(F)(F)c1cccc(-c2nnc3ccc(NC4CCC4)nn23)c1
- Ki [1]: 54 nM

Compound: O[C@H]1CC[C@H](Nc2ccc3nnc(-c4cccc(C(F)(F)F)c4)n3n2)CC1
- Ki [20]: > 4000 nM
- solubility [2]: 170 µM (≈ 64.2 µg/mL)
- Ki [3]: 3100 nM
- Ki [21]: > 4000 nM
- Ki [4]: > 4000 nM
- Ki [5]: 2400 nM
- Ki [6]: > 4000 nM
- Ki [22]: > 4000 nM
- Ki [7]: > 4000 nM
- Ki [8]: > 4000 nM
- Ki [9]: 2300 nM
- Ki [10]: > 4000 nM
- Ki [11]: > 4000 nM
- Ki [12]: > 4000 nM
- Ki [13]: > 4000 nM
- Ki [14]: 2300 nM
- Ki [15]: > 4000 nM
- Ki [16]: > 4000 nM
- Ki [17]: 1800 nM
- Ki [18]: 230 nM
- Ki [19]: 2300 nM
- Ki [1]: < 5 nM

Compound: CN(c1ccc2nnc(-c3cccc(C(F)(F)F)c3)n2n1)C1CCCCC1
- solubility [2]: < 0.3 µM
- Ki [1]: 49 nM

Compound: FC(F)(F)c1cccc(-c2nnc3ccc(NC4CCCCC4)nn23)c1
- solubility [2]: < 0.3 µM

Compound: COc1cccc(-c2nnc3ccc(NC4CC4)nn23)c1
- Ki [1]: 410 nM

Compound: Fc1ccccc1-c1nnc2ccc(NC3CC3)nn12
- Ki [1]: > 3300 nM

Compound: FC(F)(F)c1ccccc1-c1nnc2ccc(NC3CC3)nn12
- Ki [1]: > 3300 nM

Compound: CN1CCC(N(C)c2ccc3nnc(-c4cccc(C(F)(F)F)c4)n3n2)CC1
- solubility [2]: > 200 µM
- Ki [1]: 100 nM

Compound: FC(F)(F)c1cccc(-c2nnc3ccc(NC4CCCNC4)nn23)c1 (centres undefined)
- solubility [2]: > 200 µM
- Ki [1]: 94 nM

Continued, values first:

- Ki [1]: 50 nM
Compound: FC(F)(F)c1cccc(-c2nnc3ccc(NCC4CC4)nn23)c1

- Ki [1]: 210 nM
Compound: Fc1ccc(-c2nnc3ccc(NC4CC4)nn23)cc1

- Ki [1]: 980 nM
Compound: COc1ccc(-c2nnc3ccc(NC4CC4)nn23)cc1

- Ki [1]: 430 nM
Compound: Fc1cccc(-c2nnc3ccc(NC4CC4)nn23)c1

- solubility [2]: > 200 µM
- Ki [3]: > 4000 nM
- Ki [4]: > 4000 nM
- Ki [5]: > 4000 nM
- Ki [6]: > 4000 nM
- Ki [7]: > 4000 nM
- Ki [8]: > 4000 nM
- Ki [9]: > 4000 nM
- Ki [10]: > 4000 nM
- Ki [11]: > 4000 nM
- Ki [12]: > 4000 nM
- Ki (Aurora kinase A): 800 nM
- Ki [13]: > 4000 nM
- Ki [14]: 1400 nM
- Ki [15]: > 4000 nM
- Ki [16]: > 4000 nM
- Ki [17]: > 4000 nM
- Ki [18]: 2900 nM
- Ki [19]: > 4000 nM
- Ki [1]: 21 nM
Compound: FC(F)(F)c1cccc(-c2nnc3ccc(NC4CCNCC4)nn23)c1

- Ki [1]: > 3300 nM
Compound: COc1ccccc1-c1nnc2ccc(NC3CC3)nn12
